Patent US10160949B2, “Agent for improving sperm-motility” (Tokyo Metropolitan Geriatric Hospital and Institute of …, priority 2013, dated 2018)
Read-outs that look alike come from different tables or passages of the source.

Tests used:
[1] = system: sperm on day 5 after collection; test: Migration distance of forwardly moving sperm by video recording and CASA (ImageJ); format: cell-based, human; settings: FIG. 5; for average migration distance compared among untreated, H2 and N2 groups: 10 patients, 10 s of forward movement, P=0.2193
Experimental: Then, the recorded video was analyzed by the CASA system (NIH) (computer assisted sperm analysis using ImageJ, description of necessary components and use of free software) to determine the migration distance of forwardly moving sperm.

[2] = Concentration of hydrogen in liquid (hydrogen electrode); format: physicochemical; settings: 10 min after 30 min of the H2 treatment
Experimental: Next, the culture solution was left to stand. […] The culture solution as so prepared was used to wash sperm, and a change in their motility was examined. […] After re-centrifugation, the concentration was decreased to 100 μM.

[3] = system: freeze-thawed sperm
Experimental: Semen that was transferred to the clinic within four hours after ejaculation was suspended in a solution in which equal amounts of the Cleavage Medium and TEST-yolk buffer (TYB; Irvine Scientific, CA, USA) had been mixed. Then, the mixture was dispensed into cryotubes. The resulting cryotubes were once exposed to nitrogen vapor for 5 min, and were then cryopreserved in liquid nitrogen. At the time of thawing, each cryotube was heated in warm water at 37° C. After that, the sperm suspension in the cryotube was dispensed into four vials.
After the dispensed sperm suspension was washed for 5 min with each sperm washing medium, the motility of sperm was measured.

[4] = system: sperm that had a passage of five days or more after collection; settings: for percentage of sperm with forward motility compared with control (untreated) group: duration of gas treatment 5 min; for samples in which the percentage of sperm with forward motility was increased: of 17 samples with forward motility less than 15%
Experimental: In principle, the percentage (%) of sperm with motility (A+B+C)/(A+B+C+D) was calculated as an average as obtained by repeating the above examination two or three times. […] Here, as used herein, the percentage of sperm with forward motility is represented by the formula: (A+B)/(A+B+C+D).
The percentage of sperm with motility (the percentage of sperm with forward motility and the percentage of sperm with non-forward motility) and the percentage of immotile sperm were compared between the groups. […] To check whether or not the gas passed through the acryl box, another passage was inserted into a water-containing beaker. Whether the gas passed therethrough was confirmed by observing the occurrence of bubbling via the passage in the beaker. With regard to the N2 gas, the procedure was likewise performed and all were carried out at room temperature. A hundred μl of the sperm suspension was added dropwise to a 1008 dish. Before the mixed gas was made to pass therethrough, the dish was placed in the acryl box. […] After 40 min had passed, each sperm suspension was well mixed by pipetting. Next, several μl of the sperm suspension was added dropwise to a Makler container. Then, the sperm concentration, the number of sperm with forward motility, the number of sperm with non-forward motility, and the number of immotile sperm were determined visually. Also, with respect to the untreated group in which the sperm suspension was used as it was, the sperm concentration, the number of sperm with forward motility, the number of sperm with non-forward motility, and the number of immotile sperm were likewise determined visually. […] Samples of the untreated group in which the percentage of sperm with forward motility exceeded 15% were excluded. Regarding the rest samples, one sample was grouped into three treatment groups and each treatment group was measured twice. Specifically, with respect to each sample, the ratio of the number of sperm with forward motility to the total number of sperm in the visual field was defined as the percentage of sperm with forward motility. The ratio of the number of sperm with some motility (a moving flagellum), but without forward motility to the total number of sperm was defined as the percentage of sperm with non-forward motility.

[5] = system: mitochondria of sperm; settings: FIG. 7(d); compared with untreated and N2 treatment groups; P<0.001
Description: The stained sperm were visualized using a laser scanning confocal microscope (Leica, Wetzlar, Germany). In addition, the viability of sperm was checked by PI fluorescence staining.
Meanwhile, the differential interference images were designated as DIC (Differential interference contrast). […] FIG. 7(d) is a graph showing the results of semi-quantifying, using the ImageJ, the fluorescent intensity of the sperm stained with TMRM.

[6] = mixed gas containing 50% hydrogen molecules used for bubbling of a liquid; cited from earlier work
[7] = FIG. 3(a), sperm 5 days or more after collection, mixed gas treatment 40 min, 30 samples
[8] = FIG. 4, 17 samples from patients with forward motility less than 15%

[HH] [H2, hydrogen]
average migration distance compared among untreated, H2 and N2 groups [1]: no significant difference | migration distance per second of the sperm ([1]; compared with untreated and N2 groups): the longest one | hydrogen in 10 μl of the sperm suspension [2]: eliminated | percentage of sperm with forward motility (average) ([3]; FIG. 8(a), 6 samples, patients with forward motility 50% or higher, washing medium containing 50% of H2, 5 min): 61.3% | percentage of sperm with forward motility (average) ([3]; FIG. 8(a), 6 samples, patients with forward motility 50% or higher, washing medium containing 75% of H2, 5 min): 71.0% | percentage of sperm with forward motility (average) ([3]; FIG. 8(a), 6 samples, patients with forward motility 50% or higher, washing medium containing 100% of H2, 5 min): 70.0% | percentage of sperm with forward motility (average) ([3]; FIG. 8(b), 15 samples, patients with forward motility less than 50%, washing medium containing 50% of H2, 5 min): 41.2% | percentage of sperm with forward motility (average) ([3]; FIG. 8(b), 15 samples, patients with forward motility less than 50%, washing medium containing 75% of H2, 5 min): 40.8% | percentage of sperm with forward motility (average) ([3]; FIG. 8(b), 15 samples, patients with forward motility less than 50%, washing medium containing 100% of H2, 5 min): 31.4% | percentage of sperm with forward motility (average) [4, 7]: 16.8% | samples with percentage of sperm with forward motility higher than in the control ([4]; FIG. 3(b), duration of H2 treatment 30 or 60 min): about 70 % of the samples | percentage of sperm with forward motility compared with control (untreated) group ([4]; FIG. 3(b)): tended to decrease | percentage of sperm with forward motility compared with control (untreated) group ([4]; FIG. 3(b), listed as gaseous agent for improving sperm-motility): did not result in the recovery of the motility of sperm | percentage of sperm with forward motility (average) [4, 8]: 11% | samples in which the percentage of sperm with forward motility was increased ([4]; FIG. 4): 16 samples | time course of forward motility after treatment ([4]; FIG. 6, 30 to 150 min after 30 min H2 treatment, 10 patients): a big change in the forward motility of sperm was not observed | motility 24 hours after treatment ([4]; FIG. 6, H2 treatment 30 min, retreatment 30 min at 24 hours): had motility even after 24 hours | samples of sperm with non-forward motility among samples in which forward motility was not recovered ([4]; of 12 samples (25%)): 3 samples | samples in which forward movement was recovered only in the H2 treatment group ([4]; of 17 samples (35%), no recovery in untreated and N2 groups): Six | samples in which the H2 treatment group exhibited a longer migration distance (increased forward motility) than the N2 treatment group ([4]; of 18 samples in which forward motility was recovered (94%), P<0.01): 17 samples | intensity of TMRM fluorescence (mitochondrial membrane potential) [5]: strong intensity of TMRM fluorescence | hydrogen solubility [6]: about 0.4 mM

N#N [N2, nitrogen, reference compound]
average migration distance compared among untreated, H2 and N2 groups [1]: no significant difference | percentage of sperm with forward motility (average) [4, 7]: 7.7% | percentage of sperm with forward motility (average) [4, 8]: 3.6% | samples in which the percentage of sperm with forward motility was increased ([4]; FIG. 4): four
